Laboratory results from ChEMBL document CHEMBL1156960, “First synthesis of separable isomeric testosterone dimers showing differential activities on prostate cancer cells” (Bioorg Med Chem Lett, 2010).

Columns and labels:
PC-3 = test: Cytotoxicity against human androgen receptor negative PC3 cells after 72 hrs by MTT assay; assay type: functional, cell-based; details: PC-3, 72 h
LNCaP = test: Cytotoxicity against human androgen receptor positive LNCAP cells after 72 hrs by MTT assay; assay type: functional, cell-based

| Structure (SMILES) | IC50 (PC-3) [µM] | IC50 (LNCaP) [µM] |
| --- | --- | --- |
| C[C@]12CC[C@H]3[C@@H]([C@@H](C/C=C\C[C@H]4CC5=CC(=O)CC[C@]5(C)[C@H]5CC[C@]6(C)[C@@H](O)CC[C@H]6[C@H]45)CC4=CC(=O)CC[C@@]43C)[C@@H]1CC[C@@H]2O | 24.7 | 30.3 |
| C[C@]12CC[C@H]3[C@@H]([C@@H](C/C=C/C[C@H]4CC5=CC(=O)CC[C@]5(C)[C@H]5CC[C@]6(C)[C@@H](O)CC[C@H]6[C@H]45)CC4=CC(=O)CC[C@@]43C)[C@@H]1CC[C@@H]2O | 35.7 | – |
| CC(=O)O[C@]1(C(C)=O)CC[C@H]2[C@@H]3C=C(Cl)C4=CC(=O)[C@@H]5C[C@@H]5[C@]4(C)[C@H]3CC[C@@]21C [CYPROTERONE ACETATE] | 32.3 | 43 |
